Assays:
[1] = test system: ischemia/reperfusion injury in rat liver transplantation; details: reported in Non-Patent Documents 3 and 4; cited from earlier work
[2] = target: inducible nitric oxide synthase (inducible NOS, iNOS) (Homo sapiens, UniProt P35228); details: reported in Non-Patent Document 1; cited from earlier work
[3] = test system: human ovarian cancer (MCAS); assay: Example 12: FK330 with paclitaxel in MCAS tumor-bearing mice; type: in vivo, nude mice; details: FK330 100 mg/kg bid p.o. + paclitaxel 10 mg/kg/day i.v. (5 days each cycle)
Description: The dose of FK330 is expressed in terms of the weight of a simple substance (non-hydrate). Paclitaxel was purchased from LC Laboratories, Inc. (Woburn, Mass., USA), and was used as paclitaxel.
FK330 was suspended (20 mg/mL) in a 0.5% aqueous methyl cellulose solution (0.5% MC), and was orally administered. Paclitaxel was prepared into a stock solution at 10 mg/mL with an ethanol/cremophor solution (mixed at 1:1), and then the stock solution was diluted to 1 mg/mL with physiological saline for injection (Otsuka Pharmaceutical Group) immediately before administration and was intravenously administered through the tail vein.
Human ovary cancer-derived MCAS (JCRB0240) was obtained from Health Science Research Resources Bank (HSRRB) and used. The cells were cultured under the conditions of 37° C. and 5% CO2 by using EMEM medium containing 20% fetal bovine serum (FBS). […]
The body weight and the tumor diameter, determined by using a digital caliper, were measured twice a week. The tumor volume was calculated from the calculation formula for ellipsoid volume of (major axis×[minor axis]^2×0.5).
The results are expressed as the mean value (Mean)±standard error (SEM). […]

[4] = test system: renal ischemia/reperfusion injury; details: reported in Non-Patent Documents 3 and 4; cited from earlier work
[5] = test system: chronic rejection, rat aorta transplantation; details: reported in Non-Patent Document 2; cited from earlier work
[6] = target: T1, purified pig brain-derived tubulin (Sus scrofa, UniProt P02550+P02554); assay: Example 7: fluorescence-based assay of tubulin polymerization reaction; type: biochemical; details: paclitaxel final concentration 3 μmmol/L; 60 minutes after initiation; P<0.05
T1 construct: purified pig brain-derived tubulin (final concentration: 2 mg/mL); purchased Cytoskeleton, Inc. (Denver, Colo., USA); host or cells: pig brain (tissue-purified)
T1 sequence (P02554 whole entry): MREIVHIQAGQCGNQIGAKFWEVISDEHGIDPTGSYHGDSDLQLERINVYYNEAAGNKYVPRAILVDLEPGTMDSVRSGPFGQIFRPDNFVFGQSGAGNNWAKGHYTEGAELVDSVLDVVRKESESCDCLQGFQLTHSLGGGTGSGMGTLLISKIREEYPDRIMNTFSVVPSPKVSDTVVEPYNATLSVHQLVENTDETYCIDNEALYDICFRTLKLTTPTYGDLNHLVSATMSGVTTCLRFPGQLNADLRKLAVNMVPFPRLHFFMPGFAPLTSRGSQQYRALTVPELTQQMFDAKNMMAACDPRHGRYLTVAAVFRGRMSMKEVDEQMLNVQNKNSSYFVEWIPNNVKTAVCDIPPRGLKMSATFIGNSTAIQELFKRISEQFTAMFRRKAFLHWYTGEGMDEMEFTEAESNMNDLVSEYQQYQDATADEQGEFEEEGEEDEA
T1 sequence (P02550 whole entry): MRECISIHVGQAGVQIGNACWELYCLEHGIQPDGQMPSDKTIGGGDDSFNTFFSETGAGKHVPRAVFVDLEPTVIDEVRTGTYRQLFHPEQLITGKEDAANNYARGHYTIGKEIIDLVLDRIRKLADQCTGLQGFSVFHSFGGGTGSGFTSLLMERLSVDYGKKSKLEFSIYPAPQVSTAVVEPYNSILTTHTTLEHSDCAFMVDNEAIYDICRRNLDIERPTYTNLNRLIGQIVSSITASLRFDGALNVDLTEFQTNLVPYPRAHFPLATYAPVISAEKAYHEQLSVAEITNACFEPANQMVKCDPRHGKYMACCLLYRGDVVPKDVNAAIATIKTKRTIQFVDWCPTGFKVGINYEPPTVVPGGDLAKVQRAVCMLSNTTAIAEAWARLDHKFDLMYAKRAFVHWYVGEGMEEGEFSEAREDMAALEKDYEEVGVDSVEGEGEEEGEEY
Description: S-nitroso-N-acetyl-D,L-penicillamine (SNAP), which is a NO donor, was purchased from Cayman Chemical Co. (Ann Arbor, Mich., USA) and used. A tubulin polymerization analysis kit was purchased from Cytoskeleton, Inc. (Denver, Colo., USA) and used. For paclitaxel, a paclitaxel included in the analysis kit was used as paclitaxel. Docetaxel was purchased from Sigma-Aldrich Co. (St. Louis, Mo., USA) and was used as docetaxel.
A fluorescence-based assay of tubulin polymerization reaction was carried out according to the manufacturer's instruction of the kit. That is, purified pig brain-derived tubulin (final concentration: 2 mg/mL) and SNAP (final concentration: 200 or 500 μmol/L) were incubated at room temperature for 15 minutes or longer in the buffer solution included in the kit. Subsequently, paclitaxel (final concentration: 3 μmmol/L) or docetaxel (final concentration: 1 μmol/L), and […] (final concentration: 1 mmol/L) were added to this buffer mixture, and then was incubated for 60 minutes at 37° C. During this incubation, the fluorescence intensity (measurement wavelength: excitation 350 nm/fluorescence 435 nm) was measured every one minute by using a microplate reader (Spectramax, Molecular Devices, LLC, Sunnyvale, Calif., USA). The value of fluorescence intensity was expressed as a percentage relative to the SNAP and taxane-untreated group by using the value obtained 60 minutes after the initiation of the reaction, which corresponded to the equilibrium steady-state phase, and the average value for three experiments was taken as the value.
The results are expressed as the mean value (Mean)±standard error (SEM) of five independent experiments. A comparison between a paclitaxel- or docetaxel-treated group and an untreated group was carried out by an unpaired statistical test (Student's t-test) of the difference between two groups. A comparison between a SNAP-untreated group (control group) and SNAP-treated groups (200 μmol/L and 500 μmol/L) in the presence or absence of the taxane-family drugs was carried out by Dunnett's multiple comparison test. A difference value of less than 5% was considered to be statistically significant. For the data processing, Graphpad Prism version 5.03 was used.

Sequence of inducible nitric oxide synthase (inducible NOS, iNOS) (P35228 whole entry): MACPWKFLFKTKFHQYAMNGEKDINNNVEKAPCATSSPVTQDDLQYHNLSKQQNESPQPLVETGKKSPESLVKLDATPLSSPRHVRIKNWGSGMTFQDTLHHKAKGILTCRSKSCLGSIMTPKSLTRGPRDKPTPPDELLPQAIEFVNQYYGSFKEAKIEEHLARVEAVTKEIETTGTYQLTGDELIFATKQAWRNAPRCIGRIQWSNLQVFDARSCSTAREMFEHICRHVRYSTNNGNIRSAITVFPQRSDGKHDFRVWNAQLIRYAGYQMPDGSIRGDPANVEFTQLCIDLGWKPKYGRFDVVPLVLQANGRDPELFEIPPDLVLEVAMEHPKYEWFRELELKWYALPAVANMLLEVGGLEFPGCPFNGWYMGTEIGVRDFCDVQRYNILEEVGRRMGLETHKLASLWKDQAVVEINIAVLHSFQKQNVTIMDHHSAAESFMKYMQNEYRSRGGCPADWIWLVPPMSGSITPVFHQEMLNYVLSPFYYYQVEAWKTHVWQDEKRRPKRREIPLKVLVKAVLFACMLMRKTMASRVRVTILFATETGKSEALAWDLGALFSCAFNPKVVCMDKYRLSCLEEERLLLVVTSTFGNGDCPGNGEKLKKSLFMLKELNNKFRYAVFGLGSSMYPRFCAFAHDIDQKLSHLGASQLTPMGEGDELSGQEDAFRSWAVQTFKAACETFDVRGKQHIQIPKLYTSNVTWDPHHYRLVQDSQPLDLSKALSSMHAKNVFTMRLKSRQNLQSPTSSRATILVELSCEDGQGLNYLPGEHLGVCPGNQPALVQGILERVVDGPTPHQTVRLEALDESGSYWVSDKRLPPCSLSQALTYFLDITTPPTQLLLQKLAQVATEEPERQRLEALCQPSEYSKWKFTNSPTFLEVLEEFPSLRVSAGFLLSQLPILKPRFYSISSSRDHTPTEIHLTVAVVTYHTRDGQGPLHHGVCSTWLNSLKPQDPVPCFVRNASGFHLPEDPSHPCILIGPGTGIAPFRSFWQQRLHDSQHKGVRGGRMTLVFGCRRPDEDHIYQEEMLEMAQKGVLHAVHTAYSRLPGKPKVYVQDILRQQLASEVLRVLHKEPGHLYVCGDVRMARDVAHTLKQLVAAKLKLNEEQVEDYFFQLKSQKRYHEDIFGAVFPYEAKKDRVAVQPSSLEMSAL

Row | Compound | efficacy for ischemia/reperfusion injury in rat liver transplantation [1] | inducible nitric oxide synthase (iNOS) inhibitory activity [2] | tumor volume reduction ratio compared with the paclitaxel-only group ([3]; Day 63, no significant difference) [%] | tumor volume reduction ratio compared with the paclitaxel-only group ([3]; Day 91, P<0.05) [%] | efficacy for monkey renal ischemia/reperfusion injury [4] | efficacy in chronic rejection model for rat aorta transplantation [5] | tubulin polymerization (fluorescence intensity) as compared with the taxane-untreated group [6] [%]
1 | O=C(/C=C/c1ccc(Cl)cc1)N[C@@H](Cc1ccccn1)C(=O)NCC(=O)N1CCC(Oc2cc(C(F)(F)F)ncn2)CC1 [FK330, N^2-[(2E)-3-(4-chlorophenyl)-2-propenoyl]-N-[2-oxo-2-(4-{[6-(trifluoromethyl)pyrimidin-4-yl]oxy}piperidin-1-yl)ethyl]-3-pyridin-2-yl-L-alaninamide] | effective | excellent | 61.5 | 86.0 | effective | effective | –
2 | CC(=O)O[C@H]1C(=O)[C@@]2(C)[C@H]([C@H](OC(=O)c3ccccc3)[C@]3(O)C[C@H](OC(=O)[C@H](O)[C@@H](NC(=O)c4ccccc4)c4ccccc4)C(C)=C1C3(C)C)[C@]1(OC(C)=O)CO[C@@H]1C[C@@H]2O [paclitaxel, reference compound] | – | – | – | – | – | – | 152.7
